Where only a bound is given, the exact number is not on record here.

The first assay deals with TFEB. Put plainly: TFEB nuclear translocation assay, HeLa wt cells. Format: cell-based. The settings on record: 2 hrs compound treatment, Table 1 does not say HeLa wt or TRPML1 KO. The procedure, abridged:
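Cells are plated overnight, exposed to compounds for 2 hrs at 37° C, fixed with 4% PFA, blocked, and stained overnight at 4° C with rabbit anti-TFEB. After Alexa 488 secondary and Hoechst, nuclei and a perinuclear ring are segmented to give a nuclear:ring intensity ratio and AC50.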
In general, AC50 refers to the concentration at which the activity in the assay is half-maximal. Consider `CC(c1cccc(F)c1N1CCCCC1)S(=O)(=O)c1ccc(S(=O)(=O)N(C)C)cc1` (single isomer, unassigned) [Compound A-912, 4-((1-(3-fluoro-2-(piperidin-1-yl)phenyl)ethyl)sulfonyl)-N,N-dimethylbenzenesulfonamide], for which the AC50 is ≤ 2000 nM.

On to `CC(c1cccc(F)c1N1CCC(CN2CCC(F)(F)C2)CC1)S(=O)(=O)c1ccc(S(=O)(=O)N(C)C)cc1` (stereo not shown) [Compound A-806, 4-((1-(2-(4-((3,3-difluoropyrrolidin-1-yl)methyl)piperidin-1-yl)-3-fluorophenyl)ethyl)sulfonyl)-N,N-dimethylbenzenesulfonamide], for which the concentration at half-maximal activity (AC50) is ≤ 2000 nM.

On to `CC(c1cccc(F)c1N1CCC(COC(C)(C)C)CC1)S(=O)(=O)c1ccc(S(=N)(=O)N(C)C)cc1` (single isomer, unassigned) [Compound A-946, 4-((1-(2-(4-(tert-butoxymethyl)piperidin-1-yl)-3-fluorophenyl)ethyl)sulfonyl)-N,N-dimethylbenzenesulfonimidamide], for which the AC50 was ≤ 2000 nM.

The same assay, now with this note: Homo sapiens, HeLa, 2 h, 2 hrs compound treatment, Table 1 does not say HeLa wt or TRPML1 KO.
For the molecule `COCC1(C)CCN(c2ccccc2NS(=O)(=O)c2ccc(Br)cc2)CC1` [Compound A-623, 4-bromo-N-{2-[4-(methoxymethyl)-4-methylpiperidin-1-yl]phenyl}benzene-1-sulfonamide], the AC50 lay in the range of 2010 to 8000 nM.

On to `CN(C)S(=O)(=O)c1ccc(S(=O)(=O)Nc2ccccc2N2CCC(C3CCOCC3)CC2)cc1` [Compound A-548, N1,N1-dimethyl-N4-{2-[4-(oxan-4-yl)piperidin-1-yl]phenyl}benzene-1,4-disulfonamide], for which the AC50 is ≤ 2000 nM.

`Cn1nccc1S(=O)(=O)Nc1cccc(Cl)c1N1CCOCC1` [Compound A-329, N-[3-chloro-2-(morpholin-4-yl)phenyl]-1-methyl-1H-pyrazole-5-sulfonamide]: the AC50 was ≥ 10000 nM.

The molecule `CN1CC2(CCN(c3ccccc3N(C)S(=O)(=O)c3ccc(S(C)(=O)=O)cc3)CC2)c2ccc(F)cc21` [Compound A-307, N-(2-{6-fluoro-1-methyl-1,2-dihydrospiro[indole-3,4′-piperidin]-1′-yl}phenyl)-4-methanesulfonyl-N-methylbenzene-1-sulfonamide] returned a half-maximal activity concentration (AC50) of 2010 to 8000 nM.

Consider `Cc1ccc(S(=O)(=O)Nc2ccccc2N2CCC3(CC2)CN(C)c2cc(F)ccc23)cc1` [Compound A-245, N-(2-{6-fluoro-1-methyl-1,2-dihydrospiro[indole-3,4′-piperidin]-1′-yl}phenyl)-4-methylbenzene-1-sulfonamide], for which the AC50 is ≤ 2000 nM.

In the case of `CN(C)S(=O)(=O)c1ccc(S(=O)(=O)Nc2cccc(F)c2N2CCC(CN3CC4CCC(C3)O4)CC2)cc1` [Compound A-762, N4-{3-fluoro-2-[4-({8-oxa-3-azabicyclo[3.2.1]octan-3-yl}methyl)piperidin-1-yl]phenyl}-N1,N1-dimethylbenzene-1,4-disulfonamide], the AC50 was ≤ 2000 nM.

With `CC(c1cccc(F)c1N1CCC(CN2C[C@@H](C)O[C@H](C)C2)CC1)S(=O)(=O)c1ccc(S(=O)(=O)N(C)C)cc1` (stereo partly drawn) [Compound A-859, 4-{1-[2-(4-{[(2R,6R)-2,6-dimethylmorpholin-4-yl]methyl}piperidin-1-yl)-3-fluorophenyl]ethanesulfonyl}-N,N-dimethylbenzene-1-sulfonamide], the AC50 was ≤ 2000 nM.

Take `COCC1(C)CCN(c2ccccc2NS(=O)(=O)c2ccc(C(C)C)cc2)CC1` [Compound A-706, N-{2-[4-(methoxymethyl)-4-methylpiperidin-1-yl]phenyl}-4-(propan-2-yl)benzene-1-sulfonamide]: the AC50 is ≤ 2000 nM.

For `Cc1ccc(S(=O)(=O)Nc2ccccc2-n2ccc(-c3ccc(Cl)cc3F)c2)cc1` [Compound A-93, N-{2-[3-(4-chloro-2-fluorophenyl)-1H-pyrrol-1-yl]phenyl}-4-methylbenzene-1-sulfonamide], the AC50 is ≥ 10000 nM.

`Cc1nc(C2CCN(c3ccc(Cl)cc3F)CC2)cn1S(=O)(=O)c1ccc(S(=O)(=O)N(C)C)cc1` [Compound A-39, 4-((4-(1-(4-chloro-2-fluorophenyl)piperidin-4-yl)-2-methyl-1H-imidazol-1-yl)sulfonyl)-N,N-dimethylbenzenesulfonamide] came in with an AC50 of 2010 to 8000 nM.

Regarding `CS(=O)(=O)c1ccc(S(=O)(=O)Nc2ccccc2N2CCC3(CC2)COc2cc(F)ccc23)cc1` [Compound A-319, N-(2-{6-fluoro-2H-spiro[1-benzofuran-3,4′-piperidin]-1′-yl}phenyl)-4-methanesulfonylbenzene-1-sulfonamide], the concentration at half-maximal activity (AC50) was ≤ 2000 nM.

With `CN(C)S(=O)(=O)c1ccc(S(=O)(=O)Nc2cccc(N3CCC(c4ccc(Cl)cc4F)CC3)n2)cc1` [Compound A-134, N4-{6-[4-(4-chloro-2-fluorophenyl)piperidin-1-yl]pyridin-2-yl}-N1,N1-dimethylbenzene-1,4-disulfonamide], the AC50 was ≥ 10000 nM.

As to `CN1CC2(CCN(c3ccccc3NS(=O)(=O)c3ccc(S(=O)(=O)N(C)C)cc3)CC2)c2ccc(F)cc21` [Compound A-215, N4-(2-{6-fluoro-1-methyl-1,2-dihydrospiro[indole-3,4′-piperidin]-1′-yl}phenyl)-N1,N1-dimethylbenzene-1,4-disulfonamide], the AC50 was ≤ 2000 nM.

`O=S(=O)(Nc1cc(Cl)ccc1N1CC2(CCC2)C1C1CCCO1)c1ccc2c(c1)CCC2` (stereo not shown) [Compound A-397, N-{5-chloro-2-[1-(oxolan-2-yl)-2-azaspiro[3.3]heptan-2-yl]phenyl}-2,3-dihydro-1H-indene-5-sulfonamide] came in with an AC50 of 2010 to 8000 nM.

Take `C[C@@H](c1cccc(F)c1N1CCCCC1)S(=O)(=O)c1ccc(S(=N)(=O)N(C)C)cc1` (single isomer, unassigned) [Compound A-929]: the AC50 is ≤ 2000 nM.

Regarding `Cc1ccc(N2CCOCC2)c(NS(=O)(=O)c2ccc(S(=O)(=O)N(C)C)cc2)c1` [Compound A-757, N1,N1-dimethyl-N4-[5-methyl-2-(morpholin-4-yl)phenyl]benzene-1,4-disulfonamide], the AC50 is ≤ 2000 nM.

The molecule `COC(=O)C(C)(C)c1ccc(S(=O)(=O)Nc2ccccc2N2CCC3(CC2)COC(C)(C)C3)cc1` [Compound A-710, methyl 2-{4-[(2-{3,3-dimethyl-2-oxa-8-azaspiro[4.5]decan-8-yl}phenyl)sulfamoyl]phenyl}-2-methylpropanoate] registered an AC50 of 8010 to 9990 nM.

For `CC1(C)CC2(CCN(c3ccccc3NS(=O)(=O)c3ccc(S(C)(=O)=O)c(F)c3)CC2)CO1` [Compound A-660, N-(2-{3,3-dimethyl-2-oxa-8-azaspiro[4.5]decan-8-yl}phenyl)-3-fluoro-4-methanesulfonylbenzene-1-sulfonamide], the AC50 was 8010 to 9990 nM.

Turning to `Cc1ccc(S(=O)(=O)Nc2ccccc2N2[C@@H]3CC[C@H]2C[C@H](c2ccccc2F)C3)cc1` [Compound A-119, N-{2-[(1R,3S,5S)-3-(2-fluorophenyl)-8-azabicyclo[3.2.1]octan-8-yl]phenyl}-4-methylbenzene-1-sulfonamide], the AC50 is ≤ 2000 nM.

Consider `COCC(F)(F)C1CCN(c2c(F)cccc2NS(=O)(=O)c2ccc(S(=O)(=O)N(C)C)cc2)CC1` [Compound A-861, N4-{2-[4-(1,1-difluoro-2-methoxyethyl)piperidin-1-yl]-3-fluorophenyl}-N1,N1-dimethylbenzene-1,4-disulfonamide], for which the AC50 is ≤ 2000 nM.

`CC(C)OC(=O)N1CCN(c2ccccc2NS(=O)(=O)c2ccc(S(=O)(=O)N(C)C)cc2)CC1` [Compound A-336, propan-2-yl 4-{2-[4-(dimethylsulfamoyl)benzenesulfonamido]phenyl}piperazine-1-carboxylate]: the AC50 was ≤ 2000 nM.

Consider `CC1(C)CC2(CCN(c3ccccc3NS(=O)(=O)C3=Cc4ccccc4OC3)CC2)CO1` [Compound A-675, N-(2-{3,3-dimethyl-2-oxa-8-azaspiro[4.5]decan-8-yl}phenyl)-2H-chromene-3-sulfonamide], for which the AC50 was ≤ 2000 nM.

With `CN(C)S(=O)(=O)c1ccc(S(=O)(=O)Nc2ccccc2N2CCC(O)(c3ccc(Cl)cc3F)CC2)cc1` [Compound A-115, N4-{2-[4-(4-chloro-2-fluorophenyl)-4-hydroxypiperidin-1-yl]phenyl}-N1,N1-dimethylbenzene-1,4-disulfonamide], the AC50 was ≤ 2000 nM.

`C[C@@H]1CN(CC2CCN(c3c(F)cccc3NS(=O)(=O)c3ccc4c(c3)CCC4)CC2)C[C@H](C)O1` [Compound A-759, N-[2-(4-{[(2R,6S)-2,6-dimethylmorpholin-4-yl]methyl}piperidin-1-yl)-3-fluorophenyl]-2,3-dihydro-1H-indene-5-sulfonamide]: the AC50 was ≤ 2000 nM.

Turning to `CN(C)S(=O)(=O)c1ccc(S(=O)(=O)Nc2ccccc2N2CCC(c3ccc(Cl)cc3)CC2)cc1` [Compound A-47, N4-{2-[4-(4-chlorophenyl)piperidin-1-yl]phenyl}-N1,N1-dimethylbenzene-1,4-disulfonamide], the AC50 was ≤ 2000 nM.

On to `CN1Cc2cc(S(=O)(=O)Nc3ccccc3N3CCC(c4ccc(Cl)cc4F)CC3)ccc2C1=O` [Compound A-61, N-{2-[4-(4-chloro-2-fluorophenyl)piperidin-1-yl]phenyl}-2-methyl-1-oxo-2,3-dihydro-1H-isoindole-5-sulfonamide], for which the AC50 is ≥ 10000 nM.

`C[C@@H]1COC[C@H](C)N1CC1CN(c2c(F)cccc2NS(=O)(=O)c2ccc(S(=O)(=O)N(C)C)cc2)C1` [Compound A-900, N4-[2-(3-{[(3R,5S)-3,5-dimethylmorpholin-4-yl]methyl}azetidin-1-yl)-3-fluorophenyl]-N1,N1-dimethylbenzene-1,4-disulfonamide]: the AC50 was ≥ 10000 nM.

As for `COCC1(C)C2CCC1CN(c1ccccc1NS(=O)(=O)c1ccc(S(=O)(=O)N(C)C)cc1)C2` (stereo not shown) [Compound A-829, N4-{2-[8-(methoxymethyl)-8-methyl-3-azabicyclo[3.2.1]octan-3-yl]phenyl}-N1,N1-dimethylbenzene-1,4-disulfonamide], the AC50 was ≤ 2000 nM.

The record behind these values is patent US20230104936A1, “TRPML MODULATORS” (Casma Therapeutics, Inc., priority 2019, published 2023).
